We go through 23 compounds from US7473700B2, “1,2,4-triazole derivatives, processes for the preparation thereof, and pharmaceutical compositions containing the same” (CJ Corporation, priority 2002, dated 2009).

Broadly, the inhibition is the percentage by which the read-out fell short of the control.

Assay [1] concerns the target T1, COX-1 (Homo sapiens, UniProt P23219).
T1 construct: host or cells: U-937 human lymphoma cells
Briefly: Assay for the COX-1 inhibitory activity using U-937 (PGE2 inhibition). It counts as cell-based. The following applies: 1 μM test compound; U-937 human lymphoma cells; PGE2 after arachidonic acid; read-out: Cyclooxygenase (COX) Inhibition (%) COX-1 (1 μM). As for the experimental part:
The collected cells were diluted with HBSS (×1, Hank's balanced salt solution) to a concentration of 1×10^6 cells/ml. 1 ml of the dilute cell solution was placed into each well of 12-well plates. 5 μl of 1 μM solution of a test compound in DMSO and 5 μl of DMSO as a control were added to the wells. The wells were incubated in CO2 incubator at 37° C. for 15 minutes. Separately, 10 mM stock solution of arachidonic acid in ethanol was diluted ten times in ethanol to prepare 1 mM solution of arachidonic acid. Arachidonic acid acts as a substrate. 10 μl of the 1 mM solution of arachidonic acid was added to each well and incubated at CO2 incubator at 37° C. for 30 minutes. The cell solution of each well was placed in a centrifuge test tube and centrifuged at 10,000 rpm at 4° C. for 5 minutes. The concentration of PGE2 in the collected cells and the supernatant was quantified by means of a monoclonal kit (Cayman Chemicals). The percentages of PGE2 inhibition in a group of the test compound-treated cells in relation to a group of the DMSO-treated cells were calculated. Based on the calculated values, the COX-1 inhibitory activities were evaluated.
(§1) The percentages of the COX inhibition were calculated according to the following equation: % Inhibition=(concentration of PGE2 in test compound-untreated sample−concentration of PGE2 in test compound-treated sample)/(concentration of PGE2 in test compound-untreated sample)×100

Assay [2] concerns the target T2, COX-2 (Mus musculus, UniProt Q05769).
T2 construct: host or cells: RAW 264.7 cells, aspirin-pretreated, then induced with interferon gamma and LPS
T2 sequence (Q05769 18-604): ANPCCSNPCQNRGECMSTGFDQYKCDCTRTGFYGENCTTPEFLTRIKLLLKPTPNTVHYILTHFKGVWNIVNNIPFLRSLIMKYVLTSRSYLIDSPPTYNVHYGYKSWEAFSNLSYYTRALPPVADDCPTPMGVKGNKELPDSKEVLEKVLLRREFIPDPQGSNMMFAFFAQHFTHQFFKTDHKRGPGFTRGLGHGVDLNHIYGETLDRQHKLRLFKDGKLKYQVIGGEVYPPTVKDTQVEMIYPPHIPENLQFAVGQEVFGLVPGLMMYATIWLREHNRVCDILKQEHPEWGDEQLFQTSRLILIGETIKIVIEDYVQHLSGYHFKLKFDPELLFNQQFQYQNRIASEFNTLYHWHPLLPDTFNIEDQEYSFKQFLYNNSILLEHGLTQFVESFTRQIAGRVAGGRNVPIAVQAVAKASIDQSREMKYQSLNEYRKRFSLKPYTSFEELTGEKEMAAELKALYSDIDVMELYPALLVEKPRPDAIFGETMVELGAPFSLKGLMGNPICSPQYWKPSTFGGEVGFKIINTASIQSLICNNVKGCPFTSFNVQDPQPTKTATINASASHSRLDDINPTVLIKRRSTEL
The assay can be described thus: Assay for the COX-2 inhibitory activity using RAW 264.7 cell line (PGE2 inhibition). It counts as cell-based. The following applies: RAW264.7, 10 nM test compound, RAW 264.7 cells, interferon γ and LPS, 18 hours, read-out: Cyclooxygenase (COX) Inhibition (%) COX-2 (10 nM). How it is done: Each well was treated with 250 μM of aspirin and incubated at 37° C. for 2 hours. After the culture media were replaced with new culture media, the new culture media were treated with a test compound (10 nM) and incubated for 30 minutes. Then, each well was treated with interferon γ (100 units/ml) and lipopolysaccharide (LPS, 100 ng/ml) and incubated for 18 hours. The culture media were transferred to other test tubes. The concentration of PGE2 was quantified by means of the EIA kit (Cayman Chemicals).
as §1

T1 sequence (P23219 24-599): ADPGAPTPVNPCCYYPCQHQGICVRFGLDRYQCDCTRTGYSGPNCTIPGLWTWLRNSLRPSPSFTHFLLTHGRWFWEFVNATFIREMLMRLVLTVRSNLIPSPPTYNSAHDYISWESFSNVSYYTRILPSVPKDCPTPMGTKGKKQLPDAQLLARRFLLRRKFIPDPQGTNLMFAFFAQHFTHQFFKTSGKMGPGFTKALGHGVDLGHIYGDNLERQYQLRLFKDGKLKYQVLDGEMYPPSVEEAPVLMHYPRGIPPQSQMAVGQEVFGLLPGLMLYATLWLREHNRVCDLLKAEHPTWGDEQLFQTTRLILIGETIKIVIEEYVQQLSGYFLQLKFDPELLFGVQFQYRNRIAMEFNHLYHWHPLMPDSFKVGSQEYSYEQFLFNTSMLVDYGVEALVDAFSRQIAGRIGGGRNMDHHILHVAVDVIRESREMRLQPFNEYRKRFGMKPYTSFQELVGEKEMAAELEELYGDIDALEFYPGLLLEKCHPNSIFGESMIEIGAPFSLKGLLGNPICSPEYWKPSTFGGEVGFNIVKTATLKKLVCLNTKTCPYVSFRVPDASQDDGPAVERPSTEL

As to `N#CCOc1nc(-c2ccc(F)cc2)n(-c2ccc(S(N)(=O)=O)cc2)n1` [Example 42, 4-[3-cyanomethoxy-5-(4-fluorophenyl)-1,2,4-triazole-1-yl]-benzenesulfonamide], the inhibition at 1 µM in assay [1] worked out at 26.6%. Moreover, in assay [2], the inhibition at 0.01 µM turned out to be 13.3%.

As for `C#CCOc1nc(-c2ccc(OC)cc2)n(-c2ccc(S(N)(=O)=O)cc2)n1` [Example 43, 4-[3-prop-2-ynyloxy-5-(4-methoxyphenyl)-1,2,4-triazole-1-yl]-benzenesulfonamide], in assay [1], the inhibition at 1 µM worked out at 30.4%. Moreover, in assay [2], the inhibition at 0.01 µM turned out to be 16.7%.

Regarding `C#CCOc1nc(-c2ccc(F)cc2)n(-c2ccc(S(N)(=O)=O)cc2)n1` [Example 44, 4-[3-prop-2-ynyloxy-5-(4-fluorophenyl)-1,2,4-triazole-1-yl]-benzenesulfonamide], the inhibition at 1 µM in assay [1] is 27.2%. Further, in assay [2], the inhibition at 0.01 µM amounted to 14.5%.

On to `C#CCSc1nc(-c2ccccc2)n(-c2ccc(S(N)(=O)=O)cc2)n1` [Example 45, 4-(3-prop-2-ynylthio-5-phenyl-1,2,4-triazole-1-yl)-benzenesulfonamide], for which the inhibition at 1 µM in assay [1] worked out at 23.4%. In assay [2], the inhibition at 0.01 µM stood at 13.3%.

For the compound `COc1ccc(-c2nc(OC(C)C)nn2-c2ccc(S(N)(=O)=O)cc2)cc1` [Example 46, 4-[3-isopropoxy-5-(4-methoxyphenyl)-1,2,4-triazole-1-yl]-benzenesulfonamide], the inhibition at 1 µM in assay [1] turned out to be 34.2%. The inhibition at 0.01 µM in assay [2] is 12.2%.

On to `CC(C)Oc1nc(-c2ccccc2)n(-c2ccc(S(N)(=O)=O)cc2)n1` [Example 47, 4-(3-isopropoxy-5-phenyl-1,2,4-triazole-1-yl)-benzenesulfonamide], for which the inhibition at 1 µM in assay [1] turned out to be 25.4%. In assay [2], the inhibition at 0.01 µM was 10.6%.

Regarding `CC(C)Oc1nc(-c2ccc(F)cc2)n(-c2ccc(S(N)(=O)=O)cc2)n1` [Example 48, 4-[3-isopropoxy-5-(4-fluorophenyl)-1,2,4-triazole-1-yl]-benzenesulfonamide], in assay [1], the inhibition at 1 µM turned out to be 26.4%. For the same compound, the inhibition at 0.01 µM in assay [2] worked out at 9.8%.

With `CC(C)Sc1nc(-c2ccccc2)n(-c2ccc(S(N)(=O)=O)cc2)n1` [Example 49, 4-(3-isopropylthio-5-phenyl-1,2,4-triazole-1-yl)-benzenesulfonamide], the inhibition at 1 µM in assay [1] stood at 33.1%. Further, the inhibition at 0.01 µM in assay [2] was found to be 24.5%.

Regarding `COc1ccc(-c2nc(OCc3ccccc3)nn2-c2ccc(S(N)(=O)=O)cc2)cc1F` [Example 50, 4-[3-benzyloxy-5-(3-fluoro-4-methoxyphenyl)-1,2,4-triazole-1-yl]-benzenesulfonamide], the inhibition at 1 µM in assay [1] stood at 28%. Also, in assay [2], the inhibition at 0.01 µM turned out to be 16.1%.

Consider `NS(=O)(=O)c1ccc(-n2nc(OCc3ccccc3)nc2-c2ccccc2)cc1` [Example 51, 4-(3-benzyloxy-5-phenyl-1,2,4-triazole-1-yl)-benzenesulfonamide], for which, in assay [1], the inhibition at 1 µM was 21.4%. Moreover, the inhibition at 0.01 µM in assay [2] came out at 23.4%.

With `C=CCOc1nc(-c2ccc(OC)cc2)n(-c2ccc(S(N)(=O)=O)cc2)n1` [Example 52, 4-[3-allyloxy-5-(4-methoxyphenyl)-1,2,4-triazole-1-yl]-benzenesulfonamide], the inhibition at 1 µM in assay [1] is 34.3%. Moreover, the inhibition at 0.01 µM in assay [2] came out at 33.1%.

With `C=CCOc1nc(-c2ccccc2)n(-c2ccc(S(N)(=O)=O)cc2)n1` [Example 53, 4-(3-allyloxy-5-phenyl-1,2,4-triazole-1-yl)-benzenesulfonamide], the inhibition at 1 µM in assay [1] came to 20.4%. Further, in assay [2], the inhibition at 0.01 µM stood at 16.2%.

On to `C=CCOc1nc(-c2ccc(F)cc2)n(-c2ccc(S(N)(=O)=O)cc2)n1` [Example 54, 4-[3-allyloxy-5-(4-fluorophenyl)-1,2,4-triazole-1-yl]-benzenesulfonamide], for which the inhibition at 1 µM in assay [1] came out at 26.4%. Also, the inhibition at 0.01 µM in assay [2] worked out at 15.5%.

`COc1ccc(-c2nc(OCC(F)(F)F)nn2-c2ccc(S(N)(=O)=O)cc2)cc1` [Example 55, 4-[3-(2,2,2-trifluoroethoxy)-5-(4-methoxyphenyl)-1,2,4-triazole-1-yl]-benzenesulfonamide]: the inhibition at 1 µM in assay [1] stood at 33.1%. In addition, the inhibition at 0.01 µM in assay [2] was found to be 16.2%.

Turning to `NS(=O)(=O)c1ccc(-n2nc(OCC(F)(F)F)nc2-c2ccc(F)cc2)cc1` [Example 56, 4-[3-(2,2,2-trifluoroethoxy)-5-(4-fluorophenyl)-1,2,4-triazole-1-yl]-benzenesulfonamide], the inhibition at 1 µM in assay [1] was found to be 37.2%. For the same compound, in assay [2], the inhibition at 0.01 µM amounted to 27.7%.

For `NS(=O)(=O)c1ccc(-n2nc(OCCCl)nc2-c2ccccc2)cc1` [Example 57, 4-[3-(2-chloroethoxy)-5-phenyl-1,2,4-triazole-1-yl]-benzenesulfonamide], the inhibition at 1 µM in assay [1] came out at 21.4%. Moreover, the inhibition at 0.01 µM in assay [2] is 26.6%.

Regarding `NS(=O)(=O)c1ccc(-n2nc(OC3CC3)nc2-c2ccccc2)cc1` [Example 58, 4-[3-cyclopropoxy-5-phenyl-1,2,4-triazole-1-yl]-benzenesulfonamide], the inhibition at 1 µM in assay [1] came to 34.3%. In assay [2], the inhibition at 0.01 µM turned out to be 30.4%.

Regarding `COc1ccc(-c2nc(OC)nn2-c2ccc(S(C)(=O)=O)cc2)cc1` [Example 59, 1-(4-methanesulfonylphenyl)-3-methoxy-5-(4-methoxylphenyl)-1H-1,2,4-triazole], the inhibition at 1 µM in assay [1] came out at 22.6%. Also, the inhibition at 0.01 µM in assay [2] turned out to be 27.2%.

On to `COc1nc(-c2ccccc2)n(-c2ccc(S(C)(=O)=O)cc2)n1` [Example 60, 1-(4-methanesulfonylphenyl)-3-methoxy-5-phenyl-1H-1,2,4-triazole], for which, in assay [1], the inhibition at 1 µM is 23.4%. In addition, the inhibition at 0.01 µM in assay [2] was found to be 23.4%.

Turning to `CCOc1nc(-c2ccc(OC)cc2)n(-c2ccc(S(C)(=O)=O)cc2)n1` [Example 61, 1-(4-methanesulfonylphenyl)-3-ethoxy-5-(4-methoxylphenyl)-1H-1,2,4-triazole], the inhibition at 1 µM in assay [1] was determined as 33.1%. Moreover, the inhibition at 0.01 µM in assay [2] amounted to 34.2%.

For the compound `CCOc1nc(-c2ccccc2)n(-c2ccc(S(C)(=O)=O)cc2)n1` [Example 62, 1-(4-methanesulfonylphenyl)-3-ethoxy-5-phenyl-1H-1,2,4-triazole], in assay [1], the inhibition at 1 µM is 26%. The inhibition at 0.01 µM in assay [2] turned out to be 25.4%.

With `COc1ccc(-c2nc(OC(C)C)nn2-c2ccc(S(C)(=O)=O)cc2)cc1` [Example 63, 1-(4-methanesulfonylphenyl)-3-isopropoxy-5-(4-methoxyphenyl)-1H-1,2,4-triazole], the inhibition at 1 µM in assay [1] came to 22.6%. For the same compound, in assay [2], the inhibition at 0.01 µM turned out to be 26.4%.

In the case of `CC(C)Oc1nc(-c2ccccc2)n(-c2ccc(S(C)(=O)=O)cc2)n1` [Example 64, 1-(4-methanesulfonylphenyl)-3-isopropoxy-5-phenyl-1H-1,2,4-triazole], the inhibition at 1 µM in assay [1] turned out to be 23.4%. Moreover, the inhibition at 0.01 µM in assay [2] worked out at 33.1%.
